Values of other authors, collected in patent publication US20130150323A1, “USE OF ORAL HEPARIN PREPARATIONS TO TREAT URINARY TRACT DISEASES AND CONDITIONS” (Urigen Pharmaceuticals, Inc, priority 2010, published 2013).
Where two headings read alike, the source gives them in different places.

Tests used:
[1] = tested on: IC patients; conditions: intravesical instillations
[2] = tested on: cancer patients
[3] = tested on: IC patients; conditions: intravesical
[4] = tested on: bladder mucus layer of normal human volunteers; conditions: intravesically administered; 0.4 M potassium solution
[5] = tested on: interstitial cystitis patients; conditions: oral, double blind studies, 16% on placebo
[6] = oral

Compound: C[S+](C)[O-] [DMSO, dimethylsulfoxide]
- IC patients treated with benefit [1]: ~50%

Compound: O=S(=O)(O)CCS [Mesnex, mesna]
- frequency of adverse events (all AEs) ([2]; IV): 85%
- frequency of adverse events (all AEs) ([2]; oral): 89%

Compound: heparin
- patients treated in whom effective [3]: approximately 50%
- effect on protamine chemical injury of mucus layer (potassium absorption, urgency and pain) [4]: reversed

Compound: pentosanpolysulfate
- good response, patients on active drug [5]: 34%
- availability of this drug orally [6]: 2-3%
